Laboratory results reported in US20190125745A1, “TREATMENT AND DIAGNOSIS OF CANCER” (Rgenix, Inc., priority 2014, published 2019).

Legend:
[1] = tested on: MeWo, HT-144, SK-Mel-2, SK-Mel-334.2 human melanoma cells; assay: Cell invasion assay (trans-well matrigel); type: cell-based; conditions: 1 μM, 72 hours; for inhibiting cancer progression phenotypes (cell invasion, endothelial recruitment): MeWo cells, versus lower potency LXR agonists
Source text: FIG. 2. Activation of LXRβ Signaling Suppresses Melanoma Cell Invasion and Endothelial Recruitment. (A) Heat-map depicting microarray-based expression levels of LXR and RXR isoforms in the NCI-60 melanoma cell line collection. The heat map for these genes is extracted from the larger nuclear hormone receptor family heat map (FIG. 3). Color-map key indicates the change in standard deviations for the expression value of each receptor relative to the average expression value of all microarray-profiled genes (>39,000 transcript variants) in each cell line. (B) Cell invasion by 1×10^5 MeWo, 5×10^4 HT-144, 5×10^5 SK-Mel-2, and 5×10^4 SK-Mel-334.2 human melanoma cells. Cells were treated with DMSO, GW3965, T0901317, or Bexarotene at 1 μM for 72 hours and subjected to a trans-well matrigel invasion assay. n=4-8. (C) 5×10^4 MeWo, HT-144, SK-Mel-2, and SK-Mel-334.2 human melanoma cells were tested for their ability to recruit 1×10^5 endothelial cells in a trans-well migration assay, following treatment of the melanoma cells with DMSO, GW3965, T0901317, or Bexarotene at 1 μM for 72 hours. n=4-8. […] Scale bar, 50 μm. *p<0.05, **p<0.01, ***p<0.001, ****p<0.0001.
The cell invasion assay was performed as previously described in detail (Pencheva et al., 2012) using a trans-well matrigel invasion chamber system (354480, BD Biosciences). In brief, various melanoma cells were cultured in the presence of DMSO, GW3965, T0901317, or Bexarotene at 1 μM for 56 hours, after which melanoma cells were switched to starvation media (0.2% FBS) for 16 hours in the presence of each drug. Following starvation, cells were seeded into matrigel-coated trans-well inserts, and the invasion assay was allowed to proceed for 24 hours at […]. For ApoE antibody neutralization experiments, 40 μg/mL 1 D7 anti-ApoE blocking antibody (Heart Institute, University of Ottawa, Ottawa, Canada) or […] anti-IgG control antibody (AB-108-C, R&D Systems, Minneapolis, Minn.) was added to each trans-well insert at the start of the assay.
The cells were then serum starved for 16 hours in 0.2% FBS media in the presence of each corresponding drug or DMSO. Following serum starvation, the cells were subjected to the trans-well invasion assay using a matrigel invasion chamber system (354480, BD Biosciences). Invasion chambers were pre-equilibrated prior to the assay by adding 0.5 mL of starvation media to the top and bottom wells. Meanwhile, cancer cells were trypsinized and viable cells were counted using trypan blue. Cancer cells were then resuspended at a concentration of 2×10^5 cells/1 mL starvation media, and 0.5 mL of cell suspension, containing 1×10^5 cells, was seeded into each trans-well. The invasion assay was allowed to proceed for 24 hours at 37° C. […] Following fixation, the inserts were washed in PBS, cut out, and mounted onto slides using VectaShield mounting medium containing DAPI nuclear stain (H-1000, Vector Laboratories). The basal side of each insert was imaged using an inverted fluorescence microscope (Zeiss Axiovert 40 CFL) at 5× magnification, and the number of DAPI-positive cells was quantified using ImageJ.

[2] = tested on: B16F10 mouse melanoma cells; assay: Subcutaneous B16F10 tumor growth in C57BL/6 mice; type: in vivo; conditions: for melanoma primary tumor growth in vivo (B16F10): chow, WO-2010-0138598 Ex. 9 10 or 100 mg/kg/day, SB742881 100 mg/kg/day
Method: FIG. 4. Therapeutic LXR Activation Inhibits Melanoma Tumor Growth. […] Representative tumor images shown correspond to tumors extracted at the final day (d12). n=10-18 (A), 8-10 (B). (C-E) Primary tumor growth by 1×10^6 MeWo (C), […] SK-Mel-334.2 (D), and 2×10^6 SK-Mel-2 (E) human melanoma cells subcutaneously injected into immunocompromised mice. […] Tumor images shown correspond to last day of measurements. n=6-34 (C), 8 (D), 5 (E). (F) 5×10^4 B16F10 cells were injected subcutaneously into C57BL/6-WT mice. Upon tumor growth to 150 mm^3, mice were fed continuously with a control chow or a chow containing GW3965 (150 mg/kg), and tumor growth was measured daily. n=6-13. […] Tumor volume was calculated as (small diameter)^2×(large diameter)/2. […] Scale bars, 5 mm (A-D), 50 μm (J, K), 25 μm (L).
The mice were palpated daily for tumor formation and after detection of tumors measuring […] in volume, the mice were assigned to a control chow or a chow containing each respective LXR agonist: LXR-623 (20 mg/kg/day), WO-2007-002563 Ex. 19 (100 mg/kg/day), WO-2010-0138598 Ex. 9 (10 mg/kg/day or 100 mg/kg/day), or SB742881 (100 mg/kg/day). The LXR drug compounds were formulated in the mouse chow by Research Diets, Inc. Tumor dimensions were measured using digital calipers, and tumor volume was calculated as (small diameter)^2×(large diameter)/2.

[3] = tested on: ApoE expression; assay: ApoE expression by qRT-PCR in human melanoma cells
Method: (A-B) Parental MeWo cells were incubated in the presence of DMSO or GW3965 at the indicated concentrations. After 48 hours, total RNA was extracted, and the levels of ApoE (A) and DNAJA4 (B) were determined by qRT-PCR. n=3. (C) Cell invasion by 1×10^5 parental MeWo cells pre-treated with GW3965 or DMSO for 48 hours. n=6-7. p-values based on a one-sided student's t-test. […] (D) Endothelial recruitment by 5×10^4 parental MeWo cells pre-treated with GW3965 or DMSO for 48 hours. n=6-7. p-values based on a one-sided student's t-test. (E) Mice were fed with grain-based chow diet containing GW3965 (20 mg/kg) or a control diet. After 10 days, 4×10^4 parental MeWo cells were tail-vein injected into mice, and the mice were continuously fed with GW3965-containing chow or a control diet throughout the experiment.
(A-C) MeWo (A), HT-144 (B), and WM-266-4 (C) human melanoma cells were treated with GW3965 or T0901317 at the indicated concentrations for 48 hours, and the expression levels of ApoE were analysed by qRT-PCR. n=3. (D) Extracellular ApoE protein levels, quantified by ELISA, in serum-free conditioned media collected from HT-144 human melanoma cells treated with DMSO, GW3965, or T0901317 at 1 μM for 72 hours. n=3-4. […] (I-J) Relative ApoE expression, quantified by qRT-PCR, in MeWo (I) and HT-144 (J) cells transduced with a control shRNA or shRNAs targeting LXRα or LXRβ and subsequently treated with DMSO, GW3965, or T0901317 at 1 μM for 48 hours. n=3-9. (K) Extracellular ApoE protein levels, measured by ELISA, in serum-free conditioned media harvested from HT-144 cells transduced with a control shRNA or an shRNA targeting LXRα or LXRβ and treated with DMSO or GW3965 at 1 μM for 72 hours. n=3.
RNA was extracted from whole cell lysates using the Total RNA Purification Kit (17200, Norgen, Thorold, Canada). 600 ng of total RNA was then reverse transcribed into cDNA using the cDNA First-Strand Synthesis Kit (18080-051, Invitrogen), and quantitative real-time PCR amplification was performed as previously described (Pencheva et al., 2012) using an ABI Prism 7900HT Real-Time PCR System (Applied Biosystems, Austin, Tex.). […]
For every sample, 600 ng of RNA was reverse transcribed into cDNA using the cDNA First-Strand Synthesis kit (Invitrogen). […] Each reaction was carried out in quadruplicates, and ApoE mRNA expression levels were measured by quantitative real-time PCR amplification using an ABI Prism 7900HT Real-Time PCR System (Applied Biosystems). The relative ApoE expression was determined using the ΔΔCt method.

[4] = tested on: ApoE promoter; assay: ApoE promoter activity assay (luciferase, ME.1/ME.2); type: cell-based, human; conditions: 1 μM
Source text: FIG. 11. LXRβ Activation Suppresses Melanoma Invasion and Endothelial Recruitment by Transcriptionally Enhancing Melanoma-Cell ApoE Expression. […] Scale bar, 50 μm.
The ApoE promoter, consisting of a sequence spanning 980 base pairs upstream and 93 base pairs downstream of the ApoEgene, was cloned into a pGL3-Basic vector (E1751, Promega Corporation, Madison, Wis.) upstream of the firefly luciferase gene using NheI and SacI restriction enzymes. Then, multi-enhancer elements 1 (ME.1) and 2 (ME.2) were cloned directly upstream of the ApoE promoter using MluI and […] restriction enzymes. To assess ApoE promoter- and ME.1/ME.2-driven transcriptional activation by LXR agonists, 5×10^4 MeWo cells were seeded into a 24-well plate. […] To assess transcriptional activation by LXRα or LXRβ, 5×10^4 MeWo cells expressing a control shRNA or shRNA targeting LXRα or LXRβ were seeded into a 24-well plate. […] After 24 hours, cells were lysed, and cell lysate was analyzed for firefly and renilla luciferase activity using the Dual Luciferase Assay System (E1960, Promega) and a Bio-Tek Synergy NEO Microplate Reader. Firefly luciferase signal was normalized to renilla luciferase signal and all data are expressed relative to the luciferase activity ratio measured in the DMSO-treated control cells.

[5] = molecular target: T1, LXRα (Homo sapiens, UniProt Q13133); conditions: cited from earlier work
T1 sequence (Q13133 1-447): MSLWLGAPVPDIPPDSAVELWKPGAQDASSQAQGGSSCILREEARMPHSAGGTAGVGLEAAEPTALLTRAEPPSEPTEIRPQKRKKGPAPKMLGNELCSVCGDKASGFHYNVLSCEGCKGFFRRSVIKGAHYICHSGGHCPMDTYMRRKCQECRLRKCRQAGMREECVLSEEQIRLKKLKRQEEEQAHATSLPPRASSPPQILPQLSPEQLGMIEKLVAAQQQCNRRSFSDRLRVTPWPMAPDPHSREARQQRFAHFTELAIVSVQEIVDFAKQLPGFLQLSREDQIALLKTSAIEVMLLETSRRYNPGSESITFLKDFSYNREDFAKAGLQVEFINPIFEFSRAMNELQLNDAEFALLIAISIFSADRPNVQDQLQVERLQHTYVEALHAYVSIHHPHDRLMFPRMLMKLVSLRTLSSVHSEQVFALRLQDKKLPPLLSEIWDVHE

Structure (SMILES): CC(CCOc1cccc(CC(=O)O)c1)N(Cc1cccc(C(F)(F)F)c1Cl)CC(c1ccccc1)c1ccccc1 (centres unmarked) [SB742881 109]
- inhibiting cancer progression phenotypes (cell invasion, endothelial recruitment) [1]: more effective
- melanoma primary tumor growth in vivo (B16F10) [2]: significantly inhibited
- potency of inducing ApoE expression in vitro [3]: potently induce

Structure (SMILES): CC(C)(O)c1cn(-c2ccc(-c3cc(F)c(CO)c(S(C)(=O)=O)c3)cc2F)c(C(C)(C)c2c(Cl)cccc2Cl)n1 [Compound 112]
- inhibiting cancer progression phenotypes (cell invasion, endothelial recruitment) [1]: more effective
- melanoma primary tumor growth in vivo (B16F10) [2]: significantly inhibited
- potency of inducing ApoE expression in vitro [3]: potently induce

Structure (SMILES): O=S(=O)(c1ccccc1)N(CC(F)(F)F)c1ccc(C(O)(C(F)(F)F)C(F)(F)F)cc1 [TO901317 110]
- ability to suppress invasion and endothelial recruitment upon knockdown of melanoma LXRβ, but not LXRα ([1]; MeWo, HT-144): abrogated
- primary tumor growth in vivo (FIG. 4) ([2]; mouse, in vivo): inhibit
- ability to upregulate ApoE transcription and protein expression upon melanoma cell depletion of LXRβ, but not LXRα [4]: abrogated
- potency of inducing ApoE expression in vitro [3]: potently induce

Structure (SMILES): CC(C)(O)c1cn(-c2ccc(-c3cccc(S(C)(=O)=O)c3)cc2)c(C(C)(C)c2ccccc2Cl)n1 [Compound 113]
- EC50 [5]: 101 to 1000 nM
